Assay results: patent publication US20210108191A1, “Methods of Production of Biologically Active Lasso Peptides” (The Board of Trustees of the University of Illinois, priority 2017, published 2021)
Bridges are numbered along the chain shown (N, C = ends). Where no end group is shown, it is not given here.

Test system: several pathogenic bacteria
Assay: activity against pathogenic bacteria
Format: cell-based
Text: RODEO can be used to assist in identifying lasso peptide gene clusters (FIG. 2). […] Several new lasso peptides have been characterized. (FIG. 3B-C). […] RODEO provides a roadmap for the discovery of new RiPPs and lasso peptide biosynthetic enzymology.

In the case of “LP2006: rare disulfide-containing, class IV lasso peptide (SEQ ID NO:6) from Nocardiopsis alba (GRPNWGFENDWSCVRVC; disulfide 13-17 (inferred); also: lasso topology, ring places not given here)”, the “activity against pathogenic bacteria” value is reported as “active against several pathogenic bacteria”.
